The record followed here is patent US7638554B2, “Flavanoids as chemotherapeutic, chemopreventive, and antiangiogenic agents” (SRI International, priority 2002, dated 2009).

In experiment [1] the test system is prostate cancer cell line DU145. Description: Growth inhibition, sulforhodamine-based protein determination, DU145. In kind it is cell-based. Conditions: Homo sapiens, DU-145, 144 h; continuous exposure six days. As for the experimental part:
(§1) The novel compound SR 13179 was assayed for its ability to inhibit growth in several cancer cell lines. The cell lines studied included breast cancer cell line MCF-7 (ER+); prostate cancer cell lines LNCaP, PC3, and DU145; lung cancer cell line A427; ovarian cancer cell lines IGROV1, OVCAR-3, OVCAR-4, OVCAR-5, OVCAR-8, and SK-OV-3; and colon cancer cell lines COLO 205, HCC-2998, HCT-116, HCT-15, HT29, KM12, AND SW-620.
(§2) The growth assays for the breast cancer cell lines were conducted according to the method of Example 16. For the other cell lines, each assay was conducted with continuous exposure to the test compound at four log concentrations for six days, using a sulforhodamine-based protein determination to measure growth inhibition.

For experiment [2], the system named is human umbilical vein endothelial cells (HUVECs). In words: Growth inhibition of HUVECs, MTT assay. Conditions: HUVEC, read-out: concentration to inhibit growth by 50%, HUVECs. In kind it is cell-based. As for the experimental part: Angiogenesis depends upon the proliferation of vascular endothelial cells. To determine the potential antiangiogenic activity of SR 13179, the compound's ability to inhibit the proliferation of these cells was assayed. Apoptosis was then investigated as a possible mechanism for the antiproliferative activity.
Human vascular endothelial cells taken from umbilical veins (HUVECs) were obtained from Clonetics Corporation (San Diego, Calif.). Growth inhibition was measured quantitatively using the MTT assay as described by Mosmann et al., cited in the previous example.
The concentration to inhibit growth by 50% was 0.37 μM.
(Tetrazolium assays rely on reduction of a dye to a coloured formazan, in cell work by metabolically active cells.)

Experiment [3] deals with ovarian cancer cell line OVCAR-8. Description: Growth inhibition, sulforhodamine-based protein determination, OVCAR-8. Type of experiment: cell-based. Conditions: Homo sapiens, OVCAR-8, 144 h; continuous exposure six days. As for the experimental part: as §1, §2
The subject of experiment [4] is ovarian cancer cell line OVCAR-5. In words: Growth inhibition, sulforhodamine-based protein determination, OVCAR-5. In kind it is cell-based. Particulars: Homo sapiens, OVCAR-5, 144 h; continuous exposure six days. As for the experimental part: as §1, §2
The subject of experiment [5] is colon cancer cell line HCT-116. In words: Growth inhibition, sulforhodamine-based protein determination, HCT-116. In kind it is cell-based. Conditions: Homo sapiens, HCT-116, 144 h; continuous exposure six days. Here is the method:
as §1, §2

Experiment [6] deals with ovarian cancer cell line OVCAR-4. Description: Growth inhibition, sulforhodamine-based protein determination, OVCAR-4. Conditions: Homo sapiens, OVCAR-4, 144 h; continuous exposure six days. In kind it is cell-based. As for the experimental part: as §1, §2
Experiment [7] has as its system MDA-MB-231 breast cancer cells. Description: Boyden-chamber Matrigel invasion/migration assay, MDA-MB-231. Type of experiment: cell-based, human. Here is the method:
Cell Culture. MCF-10CA1a cells were cultured in Dulbecco's Modified Eagle Medium (DMEM) supplemented with 5% bovine serum, 2 mM glutamine and 1 mM non-essential amino acids. MDA-MB231 cells were grown in DMEM supplemented with 5% bovine serum. Cells were routinely maintained in a 5% CO2 incubator at 37° C.
General Procedure for Invasion Assay. MCF 10-CA1a or MDA-MB-231 breast cancer cells were treated with 1 or 5 μM of the compound being tested for 8 h. Cells were removed by trypsinizing and tested for their invasiveness by Boyden-chamber invasion assay. In the in vitro invasion/migration assays, a standard Matrigel-based assay, according to the manufacturer's (Becton-Dickinson) protocol, was used. Rehydrated Matrigel and control inserts were added to Falcon TC companion plates containing human fibronectin (30 μg/ml) as chemoattractant. Cellular suspensions (2×10^4 cells/0.5 ml) were added to individual wells of 24-well chambers (containing either control or Matrigel inserts), and the plates incubated (37° C., 5% CO2) in the presence of the compound being tested or vehicle for an additional 16-18 h. Non-invading or non-migrating cells were removed by scraping the top surfaces of the Matrigel and control inserts, respectively. The invading (or migrating) cells (on the bottom surface) were fixed (3.7% formaldehyde) and stained with Accustain (Sigma). The percent invasion was calculated as mean number of invading cells/the mean number of cells migrating through a control membrane×100.
The in vitro invasion through Matrigel was studied for two human breast cancer lines: MCF-10CA1a, a highly metastatic ER^+ line and MDA-MB-231, an ER^− line. […] At this concentration, SR13179 inhibited invasion of MDA-MB-231 by about 30% (and by 70% at 5 μM). To rule out a cytotoxic effect in the inhibition of invasion, a concurrent cytotoxicity assay was carried out and the number of viable cells was determined by MTT assay. There was less than 5% decrease in MDA-MB-231 cell viability at 5 μM concentration of SR13179 at 22 h. In the same experiment, a motility experiment was conducted, showing that cell migration was inhibited by about 20%.

Each structure is given as a SMILES string. pIC50: −log10 of the molar value.

Consider `COc1cc(C2CC(O)c3ccc4ccccc4c3O2)cc(OC)c1OC` (centres unmarked) [SR 13179, 2-(3,4,5-trimethoxyphenyl)-3,4-dihydro-2H-benzo[h]chromen-4-ol], for which the pIC50 in experiment [1] is 6.20; in experiment [2] it was 6.43; in experiment [3], 6.44; in experiment [4] it was 5.87; in experiment [5], 6.51; in experiment [6] it was 6.37. The figures for the “Invasion (%)” value in experiment [7] (1 μM) and in experiment [7] (5 μM) were 60% and 25%, respectively. Moreover, the inhibition at 1 µM in experiment [7] (Homo sapiens, MDA-MB-231, 1 μM) is ~30%. Besides, in experiment [7] (Homo sapiens, MDA-MB-231, 5 μM), the inhibition at 5 µM came out at 70%. For the same compound, the “inhibition of cell migration (motility experiment)” value in experiment [7] (same experiment as the cytotoxicity assay) is “about 20%”.

The term inhibition denotes the percentage by which the read-out fell short of the control. Low readings indicate a response near the control, high ones a response far below the control.
